We go through two compounds from US20240057638A1, “COMPOSITIONS FOR REDUCING METHANE EMISSION, METHODS FOR IMPROVING THE METABOLIC EFFICIENCY OF RUMINANT ANIMALS AND METHANOGENESIS INHIBITOR ADMINISTRATION” (MOOTRAL INNOVATIONS LIMITED, priority 2020, published 2024).

This assay relates to Methanococcus maripaludis. Description: Inhibition of methane production by Methanococcus maripaludis culture (pressure drop by manometer after 24 h). The format is cell-based. The following applies: for % Inhibition Gas: 37° C. As to the method: For this experiment, bromoform was prepped at 100 mM by adding 8.75 μl bromoform to 991 μl DMSO. This was diluted 10x diluted to generate a 10 mM solution and further diluted to generate 0.12- and 0.156-mM stock solutions. Allicin stock solutions were prepared by adding 48.6 μl allicin to 951.4 μl DMSO to make a 300 mM stock solution and 32.5 μl allicin to 967.5 μl DMSO to make a 200 mM stock solution. The experiment was set up by adding 5 ml of M141 medium (https://www.dsmz.de/microorganisms/medium/pdf/DSMZ_Medium141.pdf) to a screw cap Hungate tube followed by the addition of 5 μl allicin and/or 5 μl bromoform or 10 μl DMSO as follows: • Tube 1: DMSO (10 μl) • Tube 2: Bromoform (5 μl 0.120 mM) (120 nM final)+5 μl DMSO • Tube 3: Bromoform (5 μl 0.156 mM) (156 nM final)+5 μl DMSO • Tube 4: Allicin (5 μl 200 mM) (200 μM final)+5 μl DMSO • Tube 5: Allicin (5 μl 300 mM) (300 μM final)+5 μl DMSO • Tube 6: Bromoform (5 μl 0.120 mM) (120 nM final)+Allicin (5 μl 200 mM) (200 μM final) • Tube 7: Bromoform (5 μl 0.120 mM) (120 nM final)+Allicin (5 μl 300 mM) (300 μM final) • Tube 8: Bromoform (5 μl 0.156 mM) (156 nM final)+Allicin (5 μl 200 mM) (200 μM final) • Tube 9: Bromoform (5 μl 0.156 mM) (156 nM final)+Allicin (5 μl 300 mM) (300 μM final)
After the addition of the test substances, 500 μl of an overnight M. maripaludis culture was added to each reaction tube. Each tube was gassed with 80% H2/20% CO2 to 240 kPa and incubated at 37° C. for 24 h.
After the 24 h incubation the pressure inside the tube was measured using a manometer. Given that 5 moles of H2/CO2 are consumed to generate 1 mole of CH4 the drop in pressure observed was used to calculate the amount of methane by the control and test reactions from which a percent inhibition was calculated.
For this experiment, bromoform was prepped at 100 mM by adding 8.75 μl bromoform to 991 μl DMSO. This was diluted 10× diluted to generate a 10 mM solution and further diluted to generate 0.10- and 0.156-mM stock solutions. The sample was prepared by adding 245 mg NXRH214 powder to 35 ml M141 medium (https://www.dsmz.de/microorganisms/medium/pdf/DSMZ_Medium141.pdf) to generate a 7 mg/ml stock solution. NXRH214 powder is a garlic powder (allicin) and citrus extract (polyphenol flavonoid mix) with a ratio of 93:7, where the flavonoid mix comprises mainly naringin and neohesperidin.

The mark [1] stands for this setting: Methanococcus maripaludis, read-out: % Inhibition Gas.

As for `C=CCS[S@@+]([O-])CC=C` (stereo in doubt) [Allicin, allicin], the “% Inhibition Gas” value runs as follows: (Allicin 200 μM with DMSO) 0%; (Allicin 300 μM with DMSO) 19%.
On to `BrC(Br)Br` [Bromoform, bromoform], for which, under setting [1], the inhibition at 0.1 µM was 0% and the inhibition at 0.156 µM came out at 0.5%.
